Experimental data published in PMC6539525, “Design, Synthesis, and Mechanism of Dihydroartemisinin–Coumarin Hybrids as Potential Anti-Neuroinflammatory Agents” (Molecules, 2019).
Read-outs that look alike come from different tables or passages of the source.

How the values were obtained:
A549 cells = test: MTT cytotoxicity in A549 cells; format: cell-based; settings: Homo sapiens
Procedure: (§1) As the anti-neuroinflammatory agents for cancer patients, all newly synthesized compounds were evaluated in vitro for antitumor activity against human breast cancer cell line MDA-MB-231, colorectal cancer cells HT-29 and HCT-116, and lung cancer cell line A549 by using the standard MTT method, respectively. Doxorubicin (DOX) and DHA were used as the reference standard. Additionally, owing to the rapid proliferation, the tumor cells actually was always in hypoxia condition. Therefore, the in vitro cytotoxicity was evaluated in two different conditions (hypoxia and normoxia).
(§2) After recovery, the cells were cultured in 96-well plates for 24 h at 37 °C in a humidified atmosphere with 95% air and 5% CO2. After treated with different tested compounds, the hypoxia groups were placed in a sealed hypoxia incubator chamber (Stemcell Technologies, Inc., Vancouver, BC, Canada) filled with 5% CO2 and 95% N2 for 24 h, and then transferred to the incubator chamber filled with air for 72 h. On the contrary, the normoxia groups were cultured under air condition for 96h.
(§3) Cancer cells HT-29 (Human Colorectal Adenocarcinoma cell line), MDA-MB-231 (Human Breast Cancer cell line), HCT-116 (Human Colorectal Carcinoma cell line), and A549 (Human Lung Adenocarcinomic cell line) were from ATCC.
(§4) When the adherent cells reached 80% confluence, the culture medium was discarded. The cells were digested by trypsin and collected after centrifugation. The fresh culture medium was gently blown into it to form single-cell suspension. Cell suspension will be diluted to 1.5–3 × 10^4 cells/mL. Each hole of 96-well plates was added 100 μL cell suspension and incubated for 24 h (5% CO2; 37 °C). Then the holes were added different concentrations of tested compounds. The early screening concentration is set to 100 μM, 50 μM, 25 μM, 12.5 μM, and 6.25 μM. Three replicates were made for each concentration of the tested compounds. After the cells were grown for 96h, 20 μL MTT (5 mg/mL) was added to each well and incubated for 4 h. The medium was discarded and each well was added 100 μL DMSO to dissolve the formazan blue. Absorbance was measured at 570 nm with a microplate reader (Synergy-HT, BioTek Instruments, Winooski, VT, USA).
(§5) Hypoxia condition: The cells were treated with different concentration of tested compounds, placed in hypoxia chamber (Catalog Number 27310, Stemcell Technologies, Inc., Vancouver, BC, Canada), and incubated for 24 h ([…]; 37 °C). Then the cells were placed in normoxia condition (5% CO2; 37 °C) and incubated for 72 h.

[1] = MTT cytotoxicity in N9 cells; format: cell-based, murine; settings: mouse, N9 microglial cells, cytotoxic activity
Procedure: (§6) The anti-neuroinflammatory activity of DCH was evaluated and then the representative compounds were selected for the further study. […] In addition, in order to exclude the death influence, MTT-IC20 of all the compounds were measured. […] The exact reason was still unclear, but we supposed that it might be related to the homeostasis of cells. The tumor cells actually were always in hypoxia condition, in which DCH could promote the cytotoxic activity against tumor cells. In brief, DCH could reduce the release of NO caused by LPS-induced microglial cells.
as §4
(§7) N9 cells, which were in the logarithmic phase, were incubated for 24 h by adherent culture. Subsequently, the medium was changed to new one without serum. The cells were treated with different concentration of tested compounds. After specific time in the LPS condition, the supernatants were collected and analyzed.

MDA-MB-231 cells = test: MTT cytotoxicity in MDA-MB-231 cells; format: cell-based; settings: Homo sapiens
Procedure: as §1, §2, §3, §4, §5

[2] = tested on: NO release of LPS-induced microglial N9 cells; test: Inhibition of NO release in LPS-induced N9 cells (Griess); format: cell-based, murine; settings: Mus musculus, 1 μg/mL LPS for 48 h, NO level in medium
Procedure: as §6, §7
The nitrite levels in medium were determined by Griess reaction. The absorbance was measured at 540 nm using a microplate reader.

HCT-116 cells = test: MTT cytotoxicity in HCT-116 cells; format: cell-based; settings: Homo sapiens
Procedure: as §1, §2, §3, §4, §5

HT-29 cells = test: MTT cytotoxicity in HT-29 cells; format: cell-based, Human; settings: Homo sapiens, MTT
Procedure: as §1
as §2, with “On the contrary, the normoxia groups were cultured under air condition for 96h.” left out
as §3
as §4, with “After the cells were grown for 96h, 20 μL MTT (5 mg/mL) was added to each well and incubated for 4 h.” left out, “USA). […]” for “USA).”

[3] = A549, hypoxia 24 h then normoxia 72 h, read-out: IC50 A549 Hypoxia
[4] = A549, normoxia 96 h, read-out: IC50 A549 Normoxia
[5] = MDA-MB-231, hypoxia 24 h then normoxia 72 h, read-out: IC50 MDA-MB-231 Hypoxia
[6] = MDA-MB-231, normoxia 96 h, read-out: IC50 MDA-MB-231 Normoxia
[7] = HCT-116, hypoxia 24 h then normoxia 72 h, read-out: IC50 HCT-116 Hypoxia
[8] = HCT-116, normoxia 96 h, read-out: IC50 HCT-116 Normoxia
[9] = HT-29, hypoxia 24 h then normoxia 72 h, read-out: IC50 HT-29 Hypoxia
[10] = HT-29, normoxia 96 h, read-out: IC50 HT-29 Normoxia

IC50 [2] [µM] | SMILES | IC50 (A549 cells; [3]) [µM] | IC50 (A549 cells; [4]) [µM] | IC20 [1] [µM] | IC50 (MDA-MB-231 cells; [5]) [µM] | IC50 (MDA-MB-231 cells; [6]) [µM] | IC50 (HCT-116 cells; [7]) [µM] | IC50 (HCT-116 cells; [8]) [µM] | IC50 (HT-29 cells; [9]) [µM] | IC50 (HT-29 cells; [10]) [µM]
0.37 | C[C@H]1[C@@H](OCc2cn(Cc3cc(=O)oc4cc(O)ccc34)nn2)O[C@@H]2O[C@@]3(C)CC[C@H]4[C@H](C)CC[C@@H]1[C@@]24OO3 [3f, 7-hydroxy-4-((4-((10S)-dihydroartemisininoxy)methyl-1H-1,2,3-triazol-1-yl)-methyl)-2H-1-chromen-2-one] | 98 | > 100 | > 10 | 63.1 | > 100 | 67.7 | > 100 | 15.5 | 37.8
> 10 | Cc1cc(C)c2c(Cn3cc(CO[C@H]4O[C@@H]5O[C@@]6(C)CC[C@H]7[C@H](C)CC[C@@H]([C@H]4C)[C@@]57OO6)nn3)cc(=O)oc2c1 [3g, 5,7-dimethyl-4-((4-((10S)-dihydroartemisininoxy)methyl-1H-1,2,3-triazol-1-yl)-methyl)-2H-1-chromen-2-one] | > 100 | > 100 | > 10 | > 100 | > 100 | > 100 | > 100 | 15.9 | 23.9
> 10 | Cc1ccc2c(Cn3cc(CO[C@H]4O[C@@H]5O[C@@]6(C)CC[C@H]7[C@H](C)CC[C@@H]([C@H]4C)[C@@]57OO6)nn3)cc(=O)oc2c1 [3h, 7-methyl-4-((4-((10S)-dihydroartemisininoxy)methyl-1H-1,2,3-triazol-1-yl)-methyl)-2H-1-chromen-2-one] | > 100 | > 100 | > 10 | > 100 | > 100 | > 100 | > 100 | 32 | > 100
0.72 | Cc1ccc2oc(=O)cc(Cn3cc(CO[C@H]4O[C@@H]5O[C@@]6(C)CC[C@H]7[C@H](C)CC[C@@H]([C@H]4C)[C@@]57OO6)nn3)c2c1 [3i, 6-methyl-4-((4-((10S)-dihydroartemisininoxy)methyl-1H-1,2,3-triazol-1-yl)-methyl)-2H-1-chromen-2-one] | 62.3 | > 100 | > 10 | 22.8 | > 100 | > 100 | 65 | 8.57 | 16.4
2.03 | C[C@H]1[C@@H](OCCc2cn(Cc3cc(=O)oc4cc(O)ccc34)nn2)O[C@@H]2O[C@@]3(C)CC[C@H]4[C@H](C)CC[C@@H]1[C@@]24OO3 [4f, 7-hydroxy-4-((4-(2-((10S)-dihydroartemisininoxy)ethyl)-1H-1,2,3-triazol-1-yl)-methyl)-2H-1-chromen-2-one] | > 100 | > 100 | > 10 | 78.8 | > 100 | > 100 | > 100 | 11.3 | 32.3
1.36 | Cc1cc(C)c2c(Cn3cc(CCO[C@H]4O[C@@H]5O[C@@]6(C)CC[C@H]7[C@H](C)CC[C@@H]([C@H]4C)[C@@]57OO6)nn3)cc(=O)oc2c1 [4g, 5,7-dimethyl-4-((4-(2-((10S)-dihydroartemisininoxy)ethyl)-1H-1,2,3-triazol-1-yl)-methyl)-2H-1-chromen-2-one] | > 100 | > 100 | > 10 | 22.7 | > 100 | 25.7 | 34.5 | 9.33 | 13.8
5.69 | Cc1ccc2c(Cn3cc(CCO[C@H]4O[C@@H]5O[C@@]6(C)CC[C@H]7[C@H](C)CC[C@@H]([C@H]4C)[C@@]57OO6)nn3)cc(=O)oc2c1 [4h, 7-methyl-4-((4-(2-((10S)-dihydroartemisininoxy)ethyl)-1H-1,2,3-triazol-1-yl)-methyl)-2H-1-chromen-2-one] | > 100 | > 100 | > 10 | > 100 | > 100 | > 100 | > 100 | 56.4 | > 100
> 10 | Cc1ccc2oc(=O)cc(Cn3cc(CCO[C@H]4O[C@@H]5O[C@@]6(C)CC[C@H]7[C@H](C)CC[C@@H]([C@H]4C)[C@@]57OO6)nn3)c2c1 [4i, 6-methyl-4-((4-(2-((10S)-dihydroartemisininoxy)ethyl)-1H-1,2,3-triazol-1-yl)-methyl)-2H-1-chromen-2-one] | > 100 | > 100 | > 10 | > 100 | > 100 | > 100 | > 100 | 39 | > 100
1.59 | C[C@H]1[C@@H](OCCn2cc(COc3cc(=O)oc4ccccc34)nn2)O[C@@H]2O[C@@]3(C)CC[C@H]4[C@H](C)CC[C@@H]1[C@@]24OO3 [5j] | > 100 | > 100 | > 10 | 69.4 | 100 | > 100 | 77.2 | 12.2 | 30
1.58 | C[C@H]1[C@@H](O)O[C@@H]2O[C@@]3(C)CC[C@H]4[C@H](C)CC[C@@H]1[C@@]24OO3 [DHA, Dihydroartemisinin] | > 100 | > 100 | > 10 | 45.9 | > 100 | 25.9 | 10.3 | 11.7 | 51.1
– | COc1cccc2c1C(=O)c1c(O)c3c(c(O)c1C2=O)C[C@@](O)(C(=O)CO)C[C@@H]3O[C@H]1C[C@H](N)[C@H](O)[C@H](C)O1 [DOX, Doxorubicin, reference compound] | > 2 | > 2 | – | 0.69 | 1.37 | > 2 | 1.29 | < 0.1 | 0.11
> 10 | CN(C)c1ccc(O)c2c1C[C@H]1C[C@H]3[C@H](N(C)C)C(O)=C(C(N)=O)C(=O)[C@@]3(O)C(O)=C1C2=O [Minocycline, reference compound] | – | – | > 10 | – | – | – | – | – | –
